In US20240335425A1, “PHARMACEUTICAL COMPOSITIONS OF ALPHA-2-ADRENERGIC RECEPTOR AGONISTS AND THEIR USE FOR IMPROVING VISION” (Allergan, Inc., priority 2020, published 2024):

Columns and labels:
[1] = system: participants diagnosed with presbyopia; test: Clinical Study 2 in presbyopes, once daily for 14 days; type: in vivo, human
Description: In this study, approximately 108 participants diagnosed with presbyopia (male and female; 40 to 65 years of age) are selected to participate.
Cohorts 4, 5, and 6 (Part A) are multiple ascending dose cohorts in which participants are randomized to receive either the compound of Formula I at doses ranging from 0.01% to 0.1% or vehicle once daily in both eyes for 14 days. Each cohort in Part A consists of 9 participants who receive active intervention (the compound of Formula I) and 3 participants that receive vehicle in order to evaluate safety, tolerability, pharmacokinetics, and clinical efficacy of the compound of Formula I. As with Example 8, after each cohort is completed, the independent data monitoring committee reviews the safety, pharmacokinetic, and target engagement data to determine if it is acceptable to proceed to the next planned dosing cohort. The dose of the compound of Formula I in Part B (Cohorts 7 and 8) is selected by the data monitoring committee after Cohort 6 has completed.
Cohort 7 is a single-masked, active comparator cohort that includes approximately 60 masked participants with presbyopia randomized 1:1 to receive either pilocarpine 1.25% (w/v) ophthalmic solution or an ophthalmic solution of the compound of Formula I administered at the dose strength recommended by the data monitoring committee for 14 days. Safety, tolerability, and efficacy is assessed after topical ocular administration of the compound of Formula I compared with pilocarpine 1.25%. Common adverse events associated with pilocarpine (particularly when administered to the eye) include, for example, headache, brow ache, accommodative change, eye irritation, eye pain, blurred vision, visual impairment, ocular blurring, ocular discomfort, blurry vision, light sensitivity, stinging, and itching.
Cohort 8 is a cohort to evaluate safety, tolerability, pharmacokinetics, and efficacy of the compound of Formula I administered at the dose strength recommended by the data monitoring committee compared with vehicle for 14 days in participants with presbyopia who wear contact lenses (9 participants receive the compound of Formula I and 3 participants receive vehicle).
In all cohorts of this study (Cohorts 4 to 8), participants receive their first dose in clinic on Day 1, and stay in clinic for safety, pharmacokinetic, and efficacy evaluations for 10 hours post-dose. The participants then return for dosing and safety evaluations once daily from Day 2 to Day 7. They then receive multidose bottles for single unit of use for at-home dosing from Days 8 to 13 and return to the clinic on Day 14 for dosing as well as safety, tolerability, pharmacokinetic (Cohorts 4 to 6, and 8 only), and efficacy evaluations for 10 hours post-dose. On Day 30, participants return for a safety follow-up and close out visit.
In Parts A and B of this study, safety and tolerability are evaluated as in Example 12 (i.e. by monitoring participants in the three cohorts for exhibition/reporting of adverse events and monitoring the characteristics/assessments as are monitored in Example 12), with the additional characteristics/assessments of contrast sensitivity, photopic (e.g. ≥80 cd/m^2; 251 lux at target) and mesopic (e.g. 3.2 to 3.5 cd/m^2; 10 to 11 lux at target) high contrast corrected distance visual acuity (each eye and binocularly), manifest refraction (mesopic and photopic) also being measured in Part A. Systemic and local pharmacokinetics of the compound of Formula I are evaluated by measuring plasma and tear concentrations of the compound of Formula I in the participants and also determining pharmacokinetic parameters as is done in Example 12. Target engagement is measured by measuring the pupil size of the participants during the study as is done in Example 12. […]

[2] = target: T1, human alpha-2A receptor (Homo sapiens, UniProt P08913); test: FLIPR calcium assay, HEK293 cells with human alpha-2A receptor coupled via chimeric Gqi5; type: cell-based; conditions: HEK293 stable cell line with Gqi5, peak calcium signal; read-out: human alpha2A EC50 (nm)
T1 construct: expressed in transfected cells
T1 sequence (P08913 1-465): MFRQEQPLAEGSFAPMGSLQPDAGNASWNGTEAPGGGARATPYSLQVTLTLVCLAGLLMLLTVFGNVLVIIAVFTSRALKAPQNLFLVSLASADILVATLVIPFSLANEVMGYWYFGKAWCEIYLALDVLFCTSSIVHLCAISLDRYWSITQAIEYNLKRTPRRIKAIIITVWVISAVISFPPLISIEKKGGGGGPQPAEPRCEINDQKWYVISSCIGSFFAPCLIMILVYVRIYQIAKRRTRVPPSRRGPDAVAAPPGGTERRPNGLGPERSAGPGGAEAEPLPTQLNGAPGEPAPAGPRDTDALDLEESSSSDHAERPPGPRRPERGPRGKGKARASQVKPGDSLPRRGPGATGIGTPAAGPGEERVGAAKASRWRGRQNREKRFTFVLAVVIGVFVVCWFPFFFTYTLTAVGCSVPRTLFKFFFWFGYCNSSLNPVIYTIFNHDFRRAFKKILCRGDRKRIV
Protocol: An in vitro FLIPR (fluorometric image plate reader) assay was performed on several compounds, including the compound of Formula I (entry 1 in Table 1).
Specifically, four HEK293 stable cell lines were used in the FLIPR assay. The HEK293 cell line which stably expressed the bovine alpha adrenergic 1A receptor was used to characterize the alpha1 pharmacology. The alpha-2 adrenergic receptor family is a G coupled G-protein receptor. Therefore, in order to use these cell lines in the calcium based FLIPR assay, the chimeric G-protein Gqi5 was used to force the coupling of the human alpha-2A, alpha-2B, and alpha-2C receptors to the calcium pathway. Cells were plated, in triplicate, in poly-D-lysine coated 384-well plates at 25,000 cells per well and grown overnight in DMEM supplemented with 10% fetal bovine serum. For FLIPR evaluation, cells were washed twice with HBSS/HEPES buffer (1× Hanks Buffered Salt Solution, 20 mM HEPES, pH 7.4) prior to the addition of Fluo-4-AM (4 uM Fluo-4-AM, 0.04% pluronic acid in HBSS/HEPES buffer), a calcium-sensitive dye. Cells were loaded with dye for 40 minutes at 37° C., and then washed 4 times with HBSS/HEPES buffer to remove the excess dye. The test compounds were profiled at concentrations between 0.64 nM and 10,000 nM using a […] dilution factor.
The receptor activation was initiated by the addition of the appropriate dilutions of compounds and the transient calcium signal was captured. The peak height of the calcium curve was determined and utilized for calculation of EC50 and relative efficacy values using Activity Base software. EC50 was calculated using a 4 Parameter Logistic Equation: y=A+((B−A)/(1+((C/x)^D))) where A and B represents the bottom and top plateau of the curve; C represents the EC50 value; D represents the slope factor; and x and y represent the original x (drug concentration) and y (fluorescence signal, RFU) values.

[3] = Part A, bilaterally for 14 days
[4] = Part B, Cohort 8, contact lens wearers, 14 days

SMILES: Cc1c(N=C2NCCN2)ccc2[nH]cnc12 [Compound 1]
- depth of focus compared with vehicle [1, 3]: improved depth of focus
- distance corrected near visual acuity compared with vehicle [1, 3]: numeric improvement (e.g. two or three lines)
- patient reported outcome questionnaires/questions compared with vehicle [1, 3]: more positive answers
- pupil diameter compared with vehicle [1, 3]: decrease in pupil diameter
- systemic exposures [1, 3]: sufficient safety margins
- safety and tolerability ([1]; Part A, bilaterally for 14 days, 0.01% to 0.1%): acceptable (or improved) safety and tolerability profiles
- safety and tolerability compared with 1.25% (w/v) pilocarpine ([1]; Part B, Cohort 7): acceptable (or improved
- depth of focus compared with vehicle [1, 4]: improved depth of focus
- distance corrected near (and/or intermediate) visual acuity compared with vehicle [1, 4]: numeric improvement (e.g. two or three lines)
- patient reported outcome questionnaires/questions compared with vehicle [1, 4]: more positive answers
- safety and tolerability ([1]; Part B, both cohorts, bilaterally for 14 days): acceptable safety and tolerability profiles
- EC50 [2]: 0.7 nM
